According to ChEMBL document CHEMBL3526001, “Attenuation of intestinal absorption by major efflux transporters: quantitative tools and strategies using a Caco-2 model” (Drug Metab Dispos, 2011):
Numbered stars: 1 amine (or outer) side, 2 acyl side, 3 side chain; on linkers, the order of the positions; unused ones are H or OH. Bridge positions count the residues as written; N and C are the ends. Square brackets hold non-standard residues; d marks the D form. Peptide text beside a SMILES is read from it. I, II: the chains in the order shown. Actinocin(9to1) = Cc1c2oc3c(C)ccc(C(=O)[*:1])c3nc-2c(C(=O)[*:2])c(N)c1=O; NMeV = CN[C@H](C(=O)O)C(C)C; Sar = CNCC(=O)O

What was measured:
[1] = human, caco-2, 2 h, 10 µM
[2] = human, caco-2, 2 h, 10 µM; remark: listed apart in the source
clinical = details: human, in vivo
Description: Fraction absorbed in human

in vitro [3] = details: human, Caco-2
P-gp = assay: in vitro; details: human
Intestine = assay: Ratio of intestine AUC in po dosed mdr1 knock out mouse to intestine AUC in po dosed wild type mouse; type: ADME, organism-based; details: in vivo
in vitro [4] = details: human, Caco-2; remark: listed apart in the source
in vitro [5] = details: human, Caco-2; remark: listed apart in the source
[6] = biological target: ATP-binding cassette sub-family C member 2 (Homo sapiens, UniProt Q92887); assay: Fold activity change at MRP2 ATPase (unknown origin) relative to control; type: ADME
MDCK [7] = assay: Efflux ratio of permeability from basolateral to apical over apical to basolateral side of MDCK cells expressing BCRP; type: ADME, cell-based, Canis lupus familiaris; details: dog
MDCK [8] = assay: Efflux ratio of permeability from basolateral to apical over apical to basolateral side of MDCK cells expressing MDR1; type: ADME, cell-based, Canis lupus familiaris; details: dog
Homo sapiens = organism: Homo sapiens; details: in vivo
Description: Fraction absorbed in human

ATP-binding cassette sub-family C member 2, sequence (Q92887 whole entry): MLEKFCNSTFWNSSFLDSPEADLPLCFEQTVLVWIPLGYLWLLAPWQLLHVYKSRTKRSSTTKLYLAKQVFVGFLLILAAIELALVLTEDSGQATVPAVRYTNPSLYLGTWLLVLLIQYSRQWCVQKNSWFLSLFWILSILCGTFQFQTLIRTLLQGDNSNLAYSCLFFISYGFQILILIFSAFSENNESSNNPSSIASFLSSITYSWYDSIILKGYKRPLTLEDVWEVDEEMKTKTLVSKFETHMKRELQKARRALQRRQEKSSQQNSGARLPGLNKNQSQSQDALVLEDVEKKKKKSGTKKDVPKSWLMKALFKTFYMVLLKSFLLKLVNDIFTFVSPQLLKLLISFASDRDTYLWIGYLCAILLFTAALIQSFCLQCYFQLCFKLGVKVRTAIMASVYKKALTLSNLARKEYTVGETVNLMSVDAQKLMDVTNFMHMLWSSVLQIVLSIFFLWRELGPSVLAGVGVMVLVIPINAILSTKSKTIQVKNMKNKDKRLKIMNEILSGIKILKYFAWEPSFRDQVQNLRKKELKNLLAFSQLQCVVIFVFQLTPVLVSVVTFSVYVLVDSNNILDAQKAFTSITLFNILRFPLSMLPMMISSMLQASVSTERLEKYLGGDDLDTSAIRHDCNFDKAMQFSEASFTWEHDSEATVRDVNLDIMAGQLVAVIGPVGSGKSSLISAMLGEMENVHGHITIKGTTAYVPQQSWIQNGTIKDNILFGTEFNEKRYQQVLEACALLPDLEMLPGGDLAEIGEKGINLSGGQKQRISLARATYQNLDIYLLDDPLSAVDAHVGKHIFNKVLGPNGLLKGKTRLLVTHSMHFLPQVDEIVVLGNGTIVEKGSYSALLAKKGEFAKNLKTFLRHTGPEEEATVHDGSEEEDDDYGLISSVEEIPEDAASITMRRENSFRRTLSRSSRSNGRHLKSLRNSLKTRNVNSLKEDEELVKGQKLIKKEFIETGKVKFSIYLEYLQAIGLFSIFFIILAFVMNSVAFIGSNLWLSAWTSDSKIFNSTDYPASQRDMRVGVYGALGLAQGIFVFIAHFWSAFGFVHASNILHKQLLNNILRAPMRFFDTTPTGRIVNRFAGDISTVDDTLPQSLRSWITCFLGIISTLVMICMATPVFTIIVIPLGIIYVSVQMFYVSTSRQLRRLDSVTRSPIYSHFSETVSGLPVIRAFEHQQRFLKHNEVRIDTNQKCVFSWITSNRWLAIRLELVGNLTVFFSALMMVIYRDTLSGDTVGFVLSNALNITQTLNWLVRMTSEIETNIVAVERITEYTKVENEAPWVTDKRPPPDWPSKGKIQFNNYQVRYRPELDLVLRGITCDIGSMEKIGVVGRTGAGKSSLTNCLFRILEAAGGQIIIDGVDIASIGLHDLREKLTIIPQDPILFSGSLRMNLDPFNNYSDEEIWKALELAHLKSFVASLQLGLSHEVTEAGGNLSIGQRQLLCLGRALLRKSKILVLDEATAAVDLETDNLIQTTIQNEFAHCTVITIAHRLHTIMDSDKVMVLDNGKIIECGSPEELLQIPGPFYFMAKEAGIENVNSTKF

Molecule | Papp [1] | Papp [2] | Fa (clinical) | efflux ratio at 2 h, 10 µM (in vitro [3]) | efflux ratio at 2 h, 10 µM (P-gp; Caco-2, with LY335979 1 uM) | Ratio AUC (Intestine) | Papp A→B at 2 h, 10 µM (in vitro [4]) | Papp B→A at 2 h, 10 µM (in vitro [5]) | efflux ratio at 2 h, 10 µM (P-gp; Caco-2) | fold change (FC) [6] | Ratio (MDCK [7]) | Ratio (MDCK [8]) | Fabs (Homo sapiens)
CC(C)(C)NC(=O)[C@@H]1C[C@@H]2CCCC[C@@H]2CN1C[C@@H](O)[C@H](Cc1ccccc1)NC(=O)[C@H](CC(N)=O)NC(=O)c1ccc2ccccc2n1 | 0.4 ×10⁻⁶ cm/s | 5.6 ×10⁻⁶ cm/s | 4% |  |  |  |  |  |  |  |  |  | 
CC1=C(CC(=O)O)c2cc(F)ccc2/C1=C\c1ccc([S+](C)[O-])cc1 (stereo not given) | 2 ×10⁻⁶ cm/s | 13.5 ×10⁻⁶ cm/s | 90% | 3.6 | 2.6 |  |  |  |  |  |  |  | 
CN/C(=N/CCSCc1nc[nH]c1C)NC#N [CIMETIDINE] |  |  | 60% | 3.5 |  | 0.95 | 1.4 ×10⁻⁶ cm/s | 4.8 ×10⁻⁶ cm/s | 1.8 |  |  |  | 
COc1cc2c(c(OC)c1OC)-c1ccc(OC)c(=O)cc1[C@@H](NC(C)=O)CC2 [COLCHICINE] |  |  | 44% | 4.3 |  |  |  |  | 0.8 | -0.4 |  |  | 
Cc1c2oc3c(C)ccc(C(=O)N[C@@H]4C(=O)N[C@H](C(C)C)C(=O)N5CCC[C@H]5C(=O)N(C)CC(=O)N(C)[C@@H](C(C)C)C(=O)O[C@@H]4C)c3nc-2c(C(=O)N[C@@H]2C(=O)N[C@H](C(C)C)C(=O)N3CCC[C@H]3C(=O)N(C)CC(=O)N(C)[C@@H](C(C)C)C(=O)O[C@@H]2C)c(N)c1=O [DACTINOMYCIN] (I: T[dV]P[Sar][NMeV] / II: T[dV]P[Sar][NMeV]; ester I:1-I:C, II:1-II:C; linker I:N-II:N via Actinocin(9to1)) | 0.8 ×10⁻⁶ cm/s | 4.5 ×10⁻⁶ cm/s | 5% | 6.4 | 4 |  |  |  |  |  |  |  | 
COc1cccc2c1C(=O)c1c(O)c3c(c(O)c1C2=O)C[C@@](O)(C(C)=O)C[C@@H]3O[C@H]1C[C@H](N)[C@H](O)[C@H](C)O1 [DAUNORUBICIN] |  |  | 10% |  |  | 3 |  |  | 0.4 |  |  |  | 
C[C@H]1O[C@@H](O[C@H]2[C@@H](O)C[C@H](O[C@H]3[C@@H](O)C[C@H](O[C@H]4CC[C@@]5(C)[C@H](CC[C@@H]6[C@@H]5C[C@@H](O)[C@]5(C)[C@@H](C7=CC(=O)OC7)CC[C@]65O)C4)O[C@@H]3C)O[C@@H]2C)C[C@H](O)[C@@H]1O [DIGOXIN] |  |  | 68% | 7.5 |  | 12 |  |  | 1 |  | 1.3 | 27 | 
COc1ccc([C@@H]2Sc3ccccc3N(CCN(C)C)C(=O)[C@@H]2OC(C)=O)cc1 [DILTIAZEM] |  |  |  | 0.7 | 0.4 |  | 12 ×10⁻⁶ cm/s | 8.3 ×10⁻⁶ cm/s |  |  |  | 0.8 | 
O=c1[nH]c2ccccc2n1CCCN1CCC(n2c(=O)[nH]c3cc(Cl)ccc32)CC1 [DOMPERIDONE] |  |  | 93% |  |  |  | 5.2 ×10⁻⁶ cm/s | 15.4 ×10⁻⁶ cm/s |  | 3 |  |  | 
CC[C@H]1OC(=O)[C@H](C)[C@@H](O[C@H]2C[C@@](C)(OC)[C@@H](O)[C@H](C)O2)[C@H](C)[C@@H](O[C@@H]2O[C@H](C)C[C@H](N(C)C)[C@H]2O)[C@](C)(O)C[C@@H](C)C(=O)[C@H](C)[C@@H](O)[C@]1(C)O [ERYTHROMYCIN] |  |  | 35% | 7.1 |  |  | 0.3 ×10⁻⁶ cm/s | 3 ×10⁻⁶ cm/s | 0.5 | 1 | 8.5 |  | 
COc1cc([C@@H]2c3cc4c(cc3[C@@H](O[C@@H]3O[C@@H]5CO[C@@H](C)O[C@H]5[C@H](O)[C@H]3O)[C@H]3COC(=O)[C@H]23)OCO4)cc(OC)c1O [ETOPOSIDE] |  |  | 25% | 4.8 |  | 3.3 | 0.5 ×10⁻⁶ cm/s | 3 ×10⁻⁶ cm/s | 1.4 |  | 9.7 | 11 | 
CC(C)n1c(/C=C/C(O)CC(O)CC(=O)O)c(-c2ccc(F)cc2)c2ccccc21 (stereo not given) [FLUVASTATIN] | 1.5 ×10⁻⁶ cm/s | 15.3 ×10⁻⁶ cm/s | 98% |  | 12.3 |  |  |  |  |  |  | 4.9 | 
Nc1cc(-c2ccncc2)c[nH]c1=O [INAMRINONE] | 7.5 ×10⁻⁶ cm/s | 16.6 ×10⁻⁶ cm/s |  | 1.4 | 3.3 |  |  |  |  |  |  |  | 
CN(Cc1cnc2nc(N)nc(N)c2n1)c1ccc(C(=O)N[C@@H](CCC(=O)O)C(=O)O)cc1 [METHOTREXATE] |  |  |  | 0.9 |  |  | 1.2 ×10⁻⁶ cm/s | 1.1 ×10⁻⁶ cm/s |  | -0.2 |  |  | 
Cc1ccccc1N1C(=O)c2cc(S(N)(=O)=O)c(Cl)cc2NC1C (stereo not given) [METOLAZONE] | 1.8 ×10⁻⁶ cm/s | 9.6 ×10⁻⁶ cm/s |  | 3.3 | 2.1 |  |  |  |  |  | 5.1 |  | 
C=CCN1CC[C@]23c4c5ccc(O)c4O[C@H]2C(=O)CC[C@@]3(O)[C@H]1C5 [NALOXONE] |  |  |  | 0.5 | 0.5 |  | 21.5 ×10⁻⁶ cm/s | 10.3 ×10⁻⁶ cm/s |  |  |  | 0.7 | 
O=C(O)c1cc(/N=N/c2ccc(S(=O)(=O)Nc3ccccn3)cc2)ccc1O [SULFASALAZINE] |  |  |  | 16.9 |  |  |  |  | 32.2 | 9 |  |  | 
O=C1C(CC[S+]([O-])c2ccccc2)C(=O)N(c2ccccc2)N1c1ccccc1 (stereo not given) [SULFINPYRAZONE] | 1.2 ×10⁻⁶ cm/s | 5.8 ×10⁻⁶ cm/s | 85% | 3.3 | 9 |  |  |  |  |  |  |  | 
CC[C@@]1(O)C(=O)OCc2c1cc1n(c2=O)Cc2cc3c(CN(C)C)c(O)ccc3nc2-1 [TOPOTECAN] | 0.9 ×10⁻⁶ cm/s | 7.1 ×10⁻⁶ cm/s | 30% | 6.9 | 13.1 |  |  |  |  |  | 2.4 |  | 
CC[C@]1(O)C[C@@H]2CN(CCc3c([nH]c4ccccc34)[C@@](C(=O)OC)(c3cc4c(cc3OC)N(C)[C@H]3[C@@](O)(C(=O)OC)[C@H](OC(C)=O)[C@]5(CC)C=CCN6CC[C@]43[C@@H]65)C2)C1 [VINBLASTINE] |  |  | 5% | 13.5 |  | 0.7 | 1 ×10⁻⁶ cm/s | 11.9 ×10⁻⁶ cm/s | 2 |  | 1.8 |  | 
CC[C@]1(O)C[C@H]2CN(CCc3c([nH]c4ccccc34)[C@@](C(=O)OC)(c3cc4c(cc3OC)N(C=O)[C@H]3[C@@](O)(C(=O)OC)[C@H](OC(C)=O)[C@]5(CC)C=CCN6CC[C@]43[C@@H]65)C2)C1 [VINCRISTINE] | 0.4 ×10⁻⁶ cm/s | 3.5 ×10⁻⁶ cm/s | < 10% |  | 8.6 |  |  |  |  |  |  |  | 
CCC1=C[C@@H]2CN(C1)Cc1c([nH]c3ccccc13)[C@@](C(=O)OC)(c1cc3c(cc1OC)N(C)[C@H]1[C@@](O)(C(=O)OC)[C@H](OC(C)=O)[C@]4(CC)C=CCN5CC[C@]31[C@@H]54)C2 [VINORELBINE] |  |  | 45% | 5.9 | 1 |  | 1.4 ×10⁻⁶ cm/s | 8.5 ×10⁻⁶ cm/s |  |  |  |  | 
IVERMECTIN |  |  |  |  |  |  |  |  |  |  |  |  | 56%
